Source: patent publication US20100285145A1, “GPR 119 MODULATORS” (PFIZER INC, priority 2009, published 2010)
Values joined by “and” are separate entries in the source; they are usually repeats but may differ in a detail not shown here. Identical values can stand only once.

Experiments:
human GPR119 [1] = target: T1, human GPR119 (Homo sapiens, UniProt Q8TDV5); assay: cAMP HTRF functional assay (hGPR119 HEK-CRE beta-lactamase cells); format: cell-based; set-up: host or cells: HEK293-CRE beta-lactamase; details: for Emax: read-out: Intrinsic Activity (Human cAMP)
T1 sequence (Q8TDV5 1-335): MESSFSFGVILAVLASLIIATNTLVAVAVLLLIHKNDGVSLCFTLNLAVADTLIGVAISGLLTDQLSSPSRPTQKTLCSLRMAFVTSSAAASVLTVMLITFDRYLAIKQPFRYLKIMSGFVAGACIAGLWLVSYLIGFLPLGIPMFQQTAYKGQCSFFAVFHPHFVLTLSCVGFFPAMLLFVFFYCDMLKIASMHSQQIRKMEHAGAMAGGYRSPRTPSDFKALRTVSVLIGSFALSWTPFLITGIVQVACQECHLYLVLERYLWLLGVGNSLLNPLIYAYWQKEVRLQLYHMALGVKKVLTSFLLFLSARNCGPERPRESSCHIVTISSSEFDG
Experimental: GPR119 agonist activity was also determined with a cell-based assay utilizing an HTRF (Homogeneous Time-Resolved Fluorescence) cAMP detection kit (cAMP dynamic 2 Assay Kit; Cis Bio cat #62AM4PEC) that measures cAMP levels in the cell. The method is a competitive immunoassay between native cAMP produced by the cells and the cAMP labeled with the dye d2. The tracer binding is visualized by a Mab anti-cAMP labeled with Cryptate. The specific signal (i.e. energy transfer) is inversely proportional to the concentration of cAMP in either standard or sample.
Specifically, hGPR119 HEK-CRE beta-lactamase cells (Invitrogen 2.5×10^7/mL; the same cell line used in the beta-lactamase assay described above) are removed from cryopreservation and diluted in growth medium (Dulbecco's modified Eagle medium high glucose (DMEM; Gibco Cat # 11995-065), 1% charcoal dextran treated fetal bovine serum (CD serum; HyClone Cat # SH30068.03), 1×MEM Nonessential amino acids (Gibco Cat # 15630-080) and 25 mM HEPES pH 7.0 (Gibco Cat # 15630-080)). The cell concentration was adjusted to 1.5×10^5 cells/mL and 30 mLs of this suspension was added to a T-175 flask and incubated at 37 degrees Celsius in a humidified environment in 5% carbon dioxide. After 16 hours (overnight), the cells were removed from the T-175 flask (by rapping the side of the flask), centrifuged at 800×g and then re-suspended in assay medium (1×HBSS+CaCl2+MgCl2 (Gibco Cat # 14025-092) and 25 mM HEPES pH 7.0 (Gibco Cat # 15630-080)). The cell concentration was adjusted to 6.25×10^5 cells/mL with assay medium and 8 μl of this cell suspension (5000 cells) was added to each well of a white Greiner 384-well, low-volume assay plate (VWR cat #82051-458).
Varying concentrations of each compound to be tested were diluted in assay buffer containing 3-isobutyl-1-methylxanthin (IBMX; Sigma cat #15879) and added to the assay plate wells in a volume of 2 microL (final IBMX concentration was 400 microM and final DMSO concentration was 0.58%). Following 30 minutes incubation at room temperature, 5 microL of labeled d2 cAMP and 5 microL of anti-cAMP antibody (both diluted 1:20 in cell lysis buffer; as described in the manufacturers assay protocol) were added to each well of the assay plate. The plates were then incubated at room temperature and after 60 minutes, changes in the HTRF signal were read with an Envision 2104 multilabel plate reader using excitation of 330 nm and emissions of 615 and 665 nm. Raw data were converted to nM cAMP by interpolation from a cAMP standard curve (as described in the manufacturer's assay protocol) and EC50 determinations were made from an agonist-response curves analyzed with a curve fitting program using a 4-parameter logistic dose response equation.

human GPR119 [2] = target: T1, human GPR119; assay: GPR119 radioligand binding assay ([3H]-Compound A or B, membranes of HEK 293FT cells expressing hGPR119); set-up: host or cells: HEK293-CRE beta-lactamase; details: calculated from IC50 with Cheng-Prusoff; each line a separate determination
Experimental: HEK 293FT cells (Invitrogen, Carlsbad, Calif.) were grown in a shake flask in 293Freestyle medium (Invitrogen) supplemented with 50 microg/mL neomycin and 10 mM HEPES (37C, 8% carbon dioxide, shaking). The cells were centrifuged gently (approximately 500×g, 10 minutes) and the pellet resuspended in a mixture of Dulbecco's PBS (minus Mg++/−Ca++) supplemented with 18% fetal bovine serum (Sigma Aldrich) and P1 virus such that the multiplicity of infection (MOI) was 10 and the final cell density was 1.3×10^6/mL (total volume 2.5 liters). The cells were transferred to a 5 liter Wave Bioreactor Wavebag (Wave Technologies, Mass.) and incubated for 4 hours at 27 degrees Celsius (17 rocks/min, 7 degrees platform angle); at the end of the incubation period, an equal volume (2.5 liters) of 293Freestyle medium supplemented with 30 mM sodium butyrate (Sigma Aldrich) was added (final concentration=15 mM), and the cells were grown for 20 hours (37 degrees Celsius, 8% CO2 [0.2 liters/min}, 25 rocks/minute, 7 degrees platform angle). Cells were harvested via centrifugation (3,000×g, 10 minutes), washed once on DPBS (minus Ca++/Mg++), resuspended in 0.25M sucrose, 25 mM HEPES, 0.5 mM EDTA, pH 7.4 and frozen at −80 degrees Celsius.
The frozen cells were thawed on ice and centrifuged at 700×g (1400 rpm) for 10 minutes at 4 degrees Celsius. The cell pellet was resuspended in 20 mL phosphate-buffered saline, and centrifuged at 1400 rpm for 10 minutes. The cell pellet was then resuspended in homogenization buffer (10 mM HEPES (Gibco #15630), pH 7.5, 1 mM EDTA (BioSolutions, #BIO260-15), 1 mM EGTA (Sigma, #E-4378), 0.01 mg/mL benzamidine (Sigma #B 6506), 0.01 mg/mL bacitracin (Sigma #B 0125), 0.005 mg/mL leupeptin (Sigma #L 8511), 0.005 mg/mL aprotinin (Sigma #A 1153)) and incubated on ice for 10 minutes. Cells were then lysed with 15 gentle strokes of a tight-fitting glass Dounce homogenizer. The homogenate was centrifuged at 1000×g (2200 rpm) for 10 minutes at 4 degrees Celsius. The supernatant was transferred into fresh centrifuge tubes on ice. The cell pellet was resuspended in homogenization buffer, and centrifuged again at 1000×g (2200 rpm) for 10 minutes at 4 degrees Celsius after which the supernatant was removed and the pellet resuspended in homogenization buffer. This process was repeated a third time, after which the supernatants were combined, Benzonase (Novagen # 71206) and MgCl2 (Fluka #63020) were added to final concentrations of 1 U/mL and 6 mM, respectively, and incubated on ice for one hour. The solution was then centrifuged at 25,000×g (15000 rpm) for 20 minutes at 4 degrees Celsius, the supernatant was discarded, and the pellet was resuspended in fresh homogenization buffer (minus Benzonase and MgCl2). After repeating the 25,000×g centrifugation step, the final membrane pellet was resuspended in homogenization buffer and frozen at −80 degrees Celsius. The protein concentration was determined using the Pierce BCA protein assay kit (Pierce reagents A #23223 and B #23224).
Test compounds were serially diluted in 100% DMSO (J. T. Baker #922401). 2 microL of each dilution was added to appropriate wells of a 96-well plate (each concentration in triplicate). Unlabeled Compound A (or Compound B), at a final concentration of 10 microM, was used to determine non-specific binding. [^3H]-Compound A (or [^3H]-Compound B) was diluted in binding buffer (50 mM Tris-HCl, pH 7.5, (Sigma #T7443), 10 mM MgCl2 (Fluka 63020), 1 mM EDTA (BioSolutions #BIO260-15), 0.15% bovine serum albumin (Sigma #A7511), 0.01 mg/mL benzamidine (Sigma #B 6506), 0.01 mg/mL bacitracin (Sigma #B 0125), 0.005 mg/mL leupeptin (Sigma #L 8511), 0.005 mg/mL aprotinin (Sigma #A 1153)) to a concentration of 60 nM, and 100 microL added to all wells of 96-well plate (Nalge Nunc # 267245). […]

human GPR119 [3] = target: T1, human GPR119; assay: β-Arrestin PathHunter assay (U2OS hGPR119 β-arrestin cells); format: cell-based; details: U2OS, percent of maximal activity relative to standard GPR119 agonist at 10 micromolar; read-out: Intrinsic Activity (Human B-arrestin)
Experimental: GPR119 agonist activity was also determined with a cell-based assay utilizing DiscoverX PathHunter β-arrestin cell assay technology and their U2OS hGPR119 β-arrestin cell line (DiscoverX Cat # 93-0356C3). In this assay, agonist activation is determined by measuring agonist-induced interaction of β-arrestin with activated GPR119. A small, 42 amino acid enzyme fragment, called ProLink was appended to the C-terminus of GPR119. Arrestin was fused to the larger enzyme fragment, termed EA (Enzyme Acceptor). Activation of GPR119 stimulates binding of arrestin and forces the complementation of the two enzyme fragments, resulting in formation of a functional β-galactosidase enzyme capable of hydrolyzing substrate and generating a chemiluminescent signal.
Specifically, U2OS hGPR119 β-arrestin cells (DiscoverX 1×10^7/mL) are removed from cryopreservation and diluted in growth medium (Minimum essential medium (MEM; Gibco Cat # 11095-080), 10% heat inactivated fetal bovine serum (HIFBS; Sigma Cat # F4135-100), […] sodium pyruvate (Sigma Cat # S8636), 500 microg/mL G418 (Sigma Cat # G8168) and 250 microg/mL Hygromycin B (Invitrogen Cat # 10687-010). The cell concentration was adjusted to 1.66×10^5 cells/mL and 30 mLs of this suspension was added to a T-175 flask and incubated at 37 degrees Celsius in a humidified environment in 5% carbon dioxide. After 24 hours, the cells were removed from the T-175 flask with enzyme-free cell dissociation buffer (Gibco cat #13151-014), centrifuged at 800×g and then re-suspended in plating medium (Opti-MEM I (Invitrogen/BRL Cat # 31985-070) and 2% charcoal dextran treated fetal bovine serum (CD serum; HyClone Cat # SH30068.03).
The cell concentration was adjusted to 2.5×10^5 cells/mL with plating medium and 20 microliters of this cell suspension (5000 cells) was added to each well of a white Greiner 384-well low volume assay plate (VWR cat #82051-458) and the plates were incubated at 37 degrees Celsius in a humidified environment in 5% carbon dioxide.
After 16 hours (overnight) the assay plates were removed from the incubator and varying concentrations of each compound to be tested (diluted in assay buffer (1×HBSS+CaCl2+MgCl2 (Gibco Cat # 14025-092), 20 mM HEPES pH 7.0 (Gibco Cat # 15630-080) and 0.1% BSA (Sigma Cat # A9576)) were added to the assay plate wells in a volume of 5 microliters (final DMSO concentration was 0.5%). After a 90 minute incubation at 37 degrees Celsius in a humidified environment in 5% carbon dioxide, 12 microliters of Galacton Star β-galactosidase substrate (PathHunter Detection Kit (DiscoveRx Cat # 93-0001); prepared as described in the manufacturers assay protocol) was added to each well of the assay plate. The plates were incubated at room temperature and after 60 minutes, changes in the luminescence were read with an Envision 2104 multilabel plate reader at 0.1 seconds per well. EC50 determinations were made from an agonist-response curves analyzed with a curve fitting program using a 4-parameter logistic dose response equation.

[4] = marked **: curve was extrapolated to 100%
[5] = HTRF cAMP, 30 min, 400 microM IBMX, each line a separate determination
[6] = percent of maximal activity relative to standard GPR119 agonist at 10 micromolar

Structure (SMILES) | EC50 (human GPR119 [1]; curve was extrapolated to 100% to calculate an EC50) | Intrinsic Activity (Human cAMP) (human GPR119 [1]; [4]) | Emax (human GPR119 [1]; [4]) [%] | Ki (human GPR119 [2]) | EC50 (human GPR119 [1]; [5]) | Intrinsic Activity (Human cAMP) (human GPR119 [1]; [6]) | Emax (human GPR119 [1]; [6]) [%] | Emax (human GPR119 [3]) [%]
Cc1c(O[C@H]2[C@@H]3COC[C@H]2CN(C(=O)OC(C)(C)C)C3)ncnc1N1CCc2ncccc21 [Example 21, tert-Butyl (9-anti)-9-{[6-(2,3-dihydro-1H-pyrrolo[3,2-b]pyridin-1-yl)-5-methylpyrimidin-4-yl]oxy}-3-oxa-7-azabicyclo[3.3]nonane-7-carboxylate] | – | – | – | 26 nM and 25.6 nM | 107 nM and 87.8 nM | 45.2% | 49.8 | –
Cc1c(O[C@@H]2CCN(C(=O)OC(C)(C)C)C[C@@H]2F)ncnc1N1CCc2nnccc21 [Example 30, tert-Butyl (3S,4R)-4-{[6-(6,7-dihydro-5H-pyrrolo[3,2-c]pyridazin-5-yl)-5-methylpyrimidin-4-yl]oxy}-3-fluoropiperidine-1-carboxylate] | – | – | – | > 8150 nM | 549 nM and 520 nM | 28% | 28 | –
Cc1c(O[C@@H]2[C@@H]3COC[C@H]2CN(C(=O)OC2(C)CC2)C3)ncnc1N1CCc2ncccc21 [Example 28, 1-Methylcyclopropyl (9-syn)-9-{[6-(2,3-dihydro-1H-pyrrolo[3,2-b]pyridin-1-yl)-5-methylpyrimidin-4-yl]oxy}-3-oxa-7-azabicyclo[3.3.1]nonane-7-carboxylate] | – | – | – | – | – | 37% and 36% | 41.9 | 32.1

Continued, values first:

EC50 (human GPR119 [1]; curve was extrapolated to 100% to calculate an EC50) | Intrinsic Activity (Human cAMP) (human GPR119 [1]; [4]) | Emax (human GPR119 [1]; [4]) [%] | Ki (human GPR119 [2]) | EC50 (human GPR119 [1]; [5]) | Intrinsic Activity (Human cAMP) (human GPR119 [1]; [6]) | Emax (human GPR119 [1]; [6]) [%] | Emax (human GPR119 [3]) [%] | Structure (SMILES)
4820 nM and 5890 nM and 6100 nM | 100** % | 100 | 618 nM | – | – | – | – | Cc1c(O[C@@H]2CCN(C(=O)OC3(C)CC3)C[C@@H]2F)ncnc1N1CCc2nnccc21 [Example 31, 1-Methylcyclopropyl (3S,4R)-4-{[6-(6,7-dihydro-5H-pyrrolo[3,2-c]pyridazin-5-yl)-5-methylpyrimidin-4-yl]oxy}-3-fluoropiperidine-1-carboxylate]
– | – | – | 1710 nM | 493 nM and 765 nM and 1050 nM | 91.6% and 98% | 81.5 | – | Cc1c(OC2CCN(C(=O)OC3(C)CC3)CC2F)ncnc1N1CCc2cc(C(N)=O)ccc21 (racemic) [Example 20, 1-Methylcyclopropyl 4-{[6-(5-carbamoyl-2,3-dihydro-1H-indol-1-yl)-5-methylpyrimidin-4-yl]oxy}-3-fluoropiperidine-1-carboxylate (racemic)]
